Assays:
[1] = system: colon adenocarcinoma (LoVo); test: Phototoxicity after UV-A irradiation, MTT test; assay type: cell-based, human; conditions: mean ± SEM
Method: (§1) The evaluation of phototoxic activity was carried out in some human tumour cell lines: T-cell leukaemia (Jurkat), chronic myeloid leukaemia (K-562), colon adenocarcinoma (LoVo) and breast adenocarcinoma (MCF-7). Cellular survival experiments were carried out without irradiation to verify an eventual toxicity of photosensitizer in the dark, and then after two times of irradiation (10 and 15 min of UV-A, which correspond to 2.5 and 3.75 J/cm^2, respectively), using lamps which emit mainly at 365 nm. Cell survival was checked after 72 h of compound incubation or after 72 h from UVA irradiation by Mosmann's MTT reduction test (3-[4,5-dimethyltiazol-2yl] 2,5-diphenyl tetrazolium bromide), (T. Mossman, Rapid colorimetric assay for cellular growth and survival: application to proliferation and cytotoxicity assays, J. Immunol. Meths. 1983, 65, 55-63). […] In Table 2, there are GI50 values, that is the compound concentration required for 50% cell survival, for each cell line and for every time of irradiation.

[2] = system: chronic myeloid leukaemia (K-562); test: Phototoxicity after UV-A irradiation, MTT test; assay type: cell-based, human; conditions: mean ± SEM
Method: as §1

[3] = system: breast adenocarcinoma (MCF-7); test: Phototoxicity after UV-A irradiation, MTT test; assay type: cell-based, human; conditions: mean ± SEM
Method: as §1

[4] = system: T-cell leukaemia (Jurkat); test: Phototoxicity after UV-A irradiation, MTT test; assay type: cell-based, human; conditions: mean ± SEM
Method: as §1

[5] = system: human tumour cell lines (Jurkat, K-562, LoVo, MCF-7); test: Phototoxicity / dark toxicity in all tested human tumour cell lines, MTT test; assay type: cell-based; conditions: after UVA irradiation
Method: as §1

plasmid (pBR322) DNA = test: Plasmid strand break / DNA photodamage experiments (Fpg, Endo III); assay type: biochemical; conditions: pBR322, irradiated, Fpg and Endo III
Method: After having assessed a weak affinity toward this macromolecule in the dark by such spectroscopic techniques as linear dichroism and fluorimetric titrations, some plasmid (pBR322) strand break experiments were carried out to check an eventual DNA photodamage by compounds. The formation of open circular or linear DNA from a supercoiled plasmid DNA was monitored by the separation of the three forms using agarose gel horizontal electrophoresis. Beside the formation of frank strand breaks, oxidative damages to purine and pyrimidine bases were also evaluated, incubating the irradiated mixture with the repair enzyme Fpg (Formamidopyrimidine glycosylase) and Endo III (Endonuclase III), respectively. (B. Epe, M. Pflaum, S. Boiteux, DNA damage induced by photosensitizers in cellular and cell-free systems, Mut. Res. 1993, 299, 135-145; T. A. Ciulla, J. R. Van Camp, E. Rosenfeld, I. Kochevar, Photosensitization of single-strand breaks in pBR322 DNA by Rose Bengal, Photochem. Photobiol. 1989, 49, 293-298).

[6] = Homo sapiens, light or radiation study, 72 h, UV-A 2.5 J/cm^2, 72 h after irradiation
[7] = Homo sapiens, light or radiation study, 72 h, UV-A 3.75 J/cm^2, 72 h after irradiation
[8] = Homo sapiens, K562, light or radiation study, 72 h, K-562, UV-A 2.5 J/cm^2, 72 h after irradiation
[9] = Homo sapiens, K562, light or radiation study, 72 h, K-562, UV-A 3.75 J/cm^2, 72 h after irradiation
[10] = Homo sapiens, MCF7, light or radiation study, 72 h, MCF-7, UV-A 2.5 J/cm^2, 72 h after irradiation
[11] = Homo sapiens, MCF7, light or radiation study, 72 h, MCF-7, UV-A 3.75 J/cm^2, 72 h after irradiation
[12] = UV-A 2.5 J/cm^2, 72 h after irradiation
[13] = UV-A 3.75 J/cm^2, 72 h after irradiation

Compound | GI50 [1, 6] [µM] | GI50 [1, 7] [µM] | GI50 [2, 8] [nM] | GI50 [2, 9] [nM] | GI50 [3, 10] [µM] | GI50 [3, 11] [µM] | GI50 [4, 6] [nM] | GI50 [4, 7] [nM] | GI50 [1, 12] [µM] | GI50 [1, 13] [µM] | GI50 ([2]; K-562, UV-A 2.5 J/cm^2, 72 h after irradiation) [nM] | GI50 ([2]; K-562, UV-A 3.75 J/cm^2, 72 h after irradiation) [nM] | GI50 ([3]; MCF-7, UV-A 2.5 J/cm^2, 72 h after irradiation) [µM] | GI50 ([3]; MCF-7, UV-A 3.75 J/cm^2, 72 h after irradiation) [µM] | GI50 [4, 12] [nM] | GI50 [4, 13] [nM] | GI50 (phototoxic) [5] | DNA photodamage (photocleavage, oxidative damages in DNA bases) (plasmid (pBR322) DNA)
O=c1ccc2ccc3occc3c2o1 [Ang, angelicin, reference compound] | 3.6 ± 0.4 | 1.5 ± 0.3 | 1200 ± 100 | 1000 ± 100 | 4.4 ± 0.5 | 1.5 ± 0.2 | 1000 ± 200 | 900 ± 100 |  |  |  |  |  |  |  |  |  | 
N#Cc1cc2c([nH]c1=O)-c1c(ccn1S(=O)(=O)c1ccccc1)CC2 [Compound 9c, 1-(Phenylsulfonyl)-1,4,5,9-tetrahydro-8H-pyrrolo[3,2-h]quinolin-7-carbonitrile-8-one] |  |  |  |  |  |  |  |  | > 20 | > 20 | > 20000 | > 20000 | > 20 | > 20 | > 20000 | > 20000 |  | 
O=c1[nH]c2c(cc1S(=O)(=O)c1ccccc1)CCc1cc[nH]c1-2 [Compound 9b, 7-(Phenylsulfonyl)-1,4,5,9-tetrahydro-8H-pyrrolo[3,2-h]quinolin-8-one] | > 20 | > 20 | > 20000 | > 20000 | > 20 | > 20 | > 20000 | > 20000 |  |  |  |  |  |  |  |  |  | 
CCOC(=O)c1cc2c([nH]1)-c1[nH]c(=O)c(S(=O)(=O)c3ccccc3)cc1CC2 [Compound 9i, Ethyl 7-(phenylsulfonyl)-1,4,5,9-tetrahydro-8H-pyrrolo[3,2-h]quinolin-8-one-2-carboxylate] | 5.5 ± 0.2 | 4.6 ± 0.4 | 6100 ± 200 | 5400 ± 600 | 6.1 ± 0.2 | 4.3 ± 0.7 | 3500 ± 400 | 2500 ± 200 |  |  |  |  |  |  |  |  |  | 
CCOC(=O)c1cc2c(n1C)-c1[nH]c(=O)c(S(=O)(=O)c3ccccc3)cc1CC2 [Compound 9j, Ethyl 1-methyl-7-(phenylsulfonyl)-1,4,5,9-tetrahydro-8H-pyrrolo[3,2-h]quinolin-8-one-2-carboxylate] | 1.1 ± 0.1 | 1 ± 0.1 | 1000 ± 100 | 900 ± 100 | 1.2 ± 0.1 | 1 ± 0.1 | 700 ± 100 | 500 ± 100 |  |  |  |  |  |  |  |  | submicromolar | do not induce DNA photodamage
Cc1ccc(Cn2ccc3c2-c2[nH]c(=O)c(S(=O)(=O)c4ccccc4)cc2CC3)cc1 [Compound 9g, 1-(p-Methyl-benzyl)-7-(phenylsulfonyl)-1,4,5,9-tetrahydro-8H-pyrrolo[3,2-h]quinolin-8-one] | 2.7 ± 0.1 | 2.3 ± 0.2 | 2700 ± 200 | 2400 ± 100 | 3.8 ± 0.5 | 2.4 ± 0.2 | 1600 ± 100 | 1200 ± 200 |  |  |  |  |  |  |  |  |  | 
O=c1[nH]c2c(cc1S(=O)(=O)c1ccccc1)CCc1ccn(-c3ccccc3)c1-2 [Compound 9f, 1-Phenyl-7-(phenylsulfonyl)-1,4,5,9-tetrahydro-8H-pyrrolo[3,2-h]quinolin-8-one] | > 20 | > 20 | > 20000 | > 20000 | > 20 | > 20 | > 20000 | > 20000 |  |  |  |  |  |  |  |  |  | 
